What was measured:
Format in all cases: biochemical
Conditions in all cases: lyophilized nitrilase lysate added; OPA or NDA as fluorogenic reagent
[1] = tested on: nitrilase of SEQ ID NO: 60; test: OPA/NDA fluorescence assay of nitrile hydrolysis by nitrilase
Source text: (§1) FIG. 5C illustrates detection curves for hydroxylpivaldehyde aminonitrile (HPA), HPA combined with a nitrilase of SEQ ID NO: 56(“HPA+SEQ ID NO: 56”), dimethylbutanal aminonitrile (DMB), and DMB combined with a nitrilase of SEQ ID NO: 60 (“DMB+SEQ ID NO: 60”), all using OPA as the fluorogenic reagent.
(§2) FIG. 5D illustrates detection curves for HPA, HPA combined with a nitrilase of SEQ ID NO: 56 (“HPA+SEQ ID NO: 56”), DMB, and DMB combined with a nitrilase of SEQ ID NO: 60 (“DMB+SEQ ID NO: 60”), all using NDA as the fluorogenic reagent.
(§3) In assays using certain substrates, naphthalene dicarboxaldehyde (NDA) was substituted for OPA as the fluorescing agent. Calibration curves for APA, PAH, HPA and DMB, with either OPA or NDA were constructed (see FIGS. 5A, 5B, 5C and 5D). To determine sensitivity and background fluorescence, lyophilized nitrilase lysates with SEQ ID NOS: 190, 56, and 60 were added, respectively.

[2] = tested on: nitrilase having SEQ ID NO: 190; test: OPA/NDA fluorescence assay of nitrile hydrolysis by lyophilized nitrilase lysate
Source text: FIG. 5A illustrates detection curves for assays of pivaldehyde aminonitrile (PAH), PAH combined with a lyophilized nitrilase lysate having a SEQ ID NO: 190 (“PAH+SEQ ID NO: 190”), acetophenone aminonitrile (APA), and APA combined with a lyophilized nitrilase lysate having a SEQ ID NO: 190 (“APA+SEQ ID NO: 190”), all using OPA as the fluorogenic reagent.
FIG. 5B illustrates detection curves for PAH, PAH combined with a lyophilized nitrilase lysate having a SEQ ID NO: 190 (“PAH+SEQ ID NO: 190”), APA, and APA combined with a lyophilized nitrilase lysate having a SEQ ID NO: 190 (“APA+SEQ ID NO: 190”), all using naphthalene dicarboxyaldehyde (NDA) as the fluorogenic reagent.
as §3

[3] = tested on: nitrilase of SEQ ID NO: 56; test: OPA/NDA fluorescence assay of nitrile hydrolysis by nitrilase
Source text: as §1, §2, §3

Compound: dimethylbutanal aminonitrile [DMB]
- hydrolysis of the enzyme substrate [1]: Hydrolysis was detected

Compound: CC(N)(C#N)c1ccccc1 (stereo not drawn) [APA, acetophenone aminonitrile]
- hydrolysis of the enzyme substrate [2]: Hydrolysis was detected

Compound: CC(C)(CO)C(N)C#N (stereo not drawn) [HPA, hydroxylpivaldehyde aminonitrile]
- hydrolysis of the enzyme substrate [3]: Hydrolysis was detected

From patent US20040038419A1, “Assays and kits for detecting the presence of nitriles and/or cyanide” (priority 2002, published 2004)
